Measurements reported in BindingDB's records for doi:10.1016/0024-3205(90)90472-4 (University of Arizona, 1990).

Target: T1, Muscarinic acetylcholine receptor M2 (Rattus norvegicus, UniProt P10980)
T1 sequence (P10980 whole entry): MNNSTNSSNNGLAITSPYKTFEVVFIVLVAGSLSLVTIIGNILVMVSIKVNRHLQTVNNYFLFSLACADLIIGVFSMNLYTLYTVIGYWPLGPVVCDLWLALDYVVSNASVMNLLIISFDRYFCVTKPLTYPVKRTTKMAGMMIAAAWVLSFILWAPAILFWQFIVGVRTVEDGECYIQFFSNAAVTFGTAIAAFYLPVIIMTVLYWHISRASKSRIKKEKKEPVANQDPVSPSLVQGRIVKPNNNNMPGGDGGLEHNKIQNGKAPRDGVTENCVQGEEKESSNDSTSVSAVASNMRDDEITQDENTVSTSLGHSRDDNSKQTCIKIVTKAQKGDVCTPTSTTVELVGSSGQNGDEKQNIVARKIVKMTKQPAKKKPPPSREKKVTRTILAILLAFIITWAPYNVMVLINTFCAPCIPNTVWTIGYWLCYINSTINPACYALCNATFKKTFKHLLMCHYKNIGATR

C[C@H]1OC(=O)C2C[C@H]3CCCC[C@@H]3[C@@H](/C=C/[C@@H]3CCC[C@H](C)N3C)C21 (stereo partly specified) [HIMBACINE]
Ki: 10.2 nM
